In ChEMBL document CHEMBL1201862, “PubChem BioAssay data set” (2004):
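Test compounds were applied to cells in 96-well plates for 48 hours at 5 doses. GI50 is the concentration that inhibits growth by half.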 Activity calls are given as the source filed them. Cut-off read from the data, not from the text of the source: active = GI50 up to about 1.1 µM and inactive = higher.

What was measured:
Assay in all cases: NCI-60 cell line screen, 48 h
COLO 205 = system: COLO 205
K562 = system: K562
SK-MEL-28 = system: SK-MEL-28
RXF 393 = system: RXF 393
SR = system: SR
SK-MEL-5 = system: SK-MEL-5
786-0 = system: 786-0
UACC-257 = system: UACC-257
ACHN = system: ACHN
SN12C = system: SN12C
OVCAR-3 = system: OVCAR-3
TK-10 = system: TK-10
SF-268 = system: SF-268
MDA-N = system: MDA-N
MCF7 = system: MCF7
EKVX = system: EKVX
OVCAR-5 = system: OVCAR-5
HOP-62 = system: HOP-62
SK-OV-3 = system: SK-OV-3
MDA-MB-231 = system: MDA-MB-231
RPMI-8226 = system: RPMI-8226
U-251 = system: U-251
SK-MEL-2 = system: SK-MEL-2
SNB-19 = system: SNB-19
HT-29 = system: HT-29
IGROV-1 = system: IGROV-1
HCT-116 = system: HCT-116
A498 = system: A498
MDA-MB-435 = system: MDA-MB-435
UACC-62 = system: UACC-62
LOX IMVI = system: LOX IMVI
HCC 2998 = system: HCC 2998
NCI-H460 = system: NCI-H460
HOP-92 = system: HOP-92
NCI-H23 = system: NCI-H23
MOLT-4 = system: MOLT-4
CCRF-CEM = system: CCRF-CEM
UO-31 = system: UO-31
DU-145 = system: DU-145
OVCAR-4 = system: OVCAR-4
PC-3 = system: PC-3
KM12 = system: KM12
Hs-578T = system: Hs-578T
HL-60 = system: HL-60
SF-295 = system: SF-295
Malme-3M = system: Malme-3M
NCI-H522 = system: NCI-H522
BT-549 = system: BT-549
SW-620 = system: SW-620
CAKI-1 = system: CAKI-1
HCT-15 = system: HCT-15
NCI-H226 = system: NCI-H226

## O=C1NC(=S)N/C1=C\c1ccc(Br)s1
COLO 205
  GI50: > 100 µM (inactive)
K562
  GI50: 34.8 µM (inactive)
SK-MEL-28
  GI50: > 100 µM (inactive)
RXF 393
  GI50: > 100 µM (inactive)
SR
  GI50: 33.4 µM (inactive)
SK-MEL-5
  GI50: 39.8 µM (inactive)
786-0
  GI50: > 100 µM (inactive)
UACC-257
  GI50: 61 µM (inactive)
ACHN
  GI50: > 100 µM (inactive)
SN12C
  GI50: > 100 µM (inactive)
OVCAR-3
  GI50: 71.8 µM (inactive)
TK-10
  GI50: 52 µM (inactive)
SF-268
  GI50: > 100 µM (inactive)
MDA-N
  GI50: > 100 µM (inactive)
MCF7
  GI50: > 100 µM (inactive)
EKVX
  GI50: 10.3 µM (inactive)
OVCAR-5
  GI50: > 100 µM (inactive)
HOP-62
  GI50: > 100 µM (inactive)
SK-OV-3
  GI50: > 100 µM (inactive)
MDA-MB-231
  GI50: > 100 µM (inactive)
RPMI-8226
  GI50: 27.7 µM (inactive)
U-251
  GI50: > 100 µM (inactive)
SK-MEL-2
  GI50: 99.8 µM (inactive)
SNB-19
  GI50: 90.2 µM (inactive)
HT-29
  GI50: 85.1 µM (inactive)
IGROV-1
  GI50: 93.5 µM (inactive)
HCT-116
  GI50: > 100 µM (inactive)
A498
  GI50: 34.3 µM (inactive)
MDA-MB-435
  GI50: 58.6 µM (inactive)
UACC-62
  GI50: 28 µM (inactive)
LOX IMVI
  GI50: > 100 µM (inactive)
HCC 2998
  GI50: 57.8 µM (inactive)
NCI-H460
  GI50: 70.5 µM (inactive)
HOP-92
  GI50: 82 µM (inactive)
NCI-H23
  GI50: > 100 µM (inactive)
MOLT-4
  GI50: 21.4 µM (inactive)
CCRF-CEM
  GI50: 25.3 µM (inactive)
UO-31
  GI50: 55.2 µM (inactive)
DU-145
  GI50: > 100 µM (inactive)
OVCAR-4
  GI50: 53.1 µM (inactive)
PC-3
  GI50: 94.2 µM (inactive)
KM12
  GI50: > 100 µM (inactive)
Hs-578T
  GI50: 34 µM (inactive)
HL-60
  GI50: 0.861 µM (active)
SF-295
  GI50: > 100 µM (inactive)
Malme-3M
  GI50: > 100 µM (inactive)
NCI-H522
  GI50: 82.8 µM (inactive)
BT-549
  GI50: 40.4 µM (inactive)
SW-620
  GI50: > 100 µM (inactive)
CAKI-1
  GI50: 70.6 µM (inactive)
HCT-15
  GI50: 91.2 µM
NCI-H226
  GI50: 84.9 µM (inactive)
